Columns and labels:
[1] = molecular target: T1, queuine-tRNA ribosyltransferase enzyme complex (hQTRT1:hQTRT2) (Homo sapiens, UniProt Q9BXR0); assay: [8-14C] guanine displacement assay (TGT substrate); type: biochemical; details: 50 μM compound, 30 mins at 37° C., ≥5% is considered a positive substrate for TGT
T1 construct: polyhistidine (N); made in house; host or cells: E. coli BL21(DE3) tgt::Kmr
Description: Compounds capable of acting as a queuine-tRNA ribosyltransferase enzyme complex substrate may be identified by use of a displacement assay as described below:
Production of [8-^14C] Guanine Labeled tRNA (tRNA*)
Before adding the 8-[^14C] guanine solution to the reaction the solution was neutralised with an equal volume (vol/vol) 0.01 M NaOH, as the [8-^14C] Guanine is supplied in 0.01 M HCl aqueous solution. In vitro synthesised human tyrosyl tRNA was prepared by T7 transcription in ultrapure nuclease-free water as described previously (Alqasem et al., 2020). Recombinant human QTRT1 enzyme containing an N-terminal polyhistidine tag and human QTRT2 containing a C-terminal TEV-Strep-Tag®II tag were produced in BL21(DE3) tgt::Kmr cells as described previously (Alqasem et al., 2020).
The reaction was incubated for 1 hour at 37° C. […] The tRNA* pellet was resuspended in 30 μL nuclease-free water and the concentration measured spectrophotometrically at A260. […]
After 30 mins the reactions were quenched by mixing with 2.5 ml ice-cold 10% trichloroacetic acid (TCA) and placed on ice for one hour to precipitate the tRNA. […] The vacuum manifold was disassembled, the filters recovered and dried again at room temperature before being placed in scintillation vials containing 10 ml of Ecoscint A and radioactivity levels measured by scintillation counting. […]

[2] = system: RASFCs; assay: Synovial fibroblast assay, IL-6 ELISA; type: cell-based, human; details: RASFCs treated with TNF (10 ng/ml), 200 μm compound, supernatants at 72 hr, n=3, DMSO vehicle = 100%
Description: Synovial Fibroblast Assay
To assess the compounds in human rheumatoid arthritis samples the following protocol was employed:
Isolation of Primary Fibroblasts: RA synovial biopsies were digested with 1 mg/ml collagenase type 1 (Worthington Biochemical, Freehold, NJ, USA) in RPMI-1640 (Gibco-BRL, Paisley, UK) for 4 hr at 37° C. in humidified air with 5% CO2. Dissociated cells were grown to confluence in RPMI 1640, 10% FCS (Gibco-BRL), 10 ml of 1 mmol/l HEPES (Gibco-BRL), penicillin (100 units/ml; Bioscience), streptomycin (100 units/ml; Bioscience) and fungizone (0.25 μg/ml; Bioscience) before passaging. Cells were used between passages 3-8.
Compounds (200 μm) were tested on n=3 RASFCs
RASFCs were grown to 80% confluency in 48 well plates. RASFCs were treated with TNF (10 ng/ml) in the presence of 200 μm of each compound. Media was replaced after 24 h and fresh media and compound was added. Cell supernatants were collected at 72 hr time point. DMSO treated cells were used as a vehicle control (Red dotted line represents DMSO control).
IL-6 ELISA: Levels of pro-inflammatory cytokine IL6 were measured in cultured RASFC supernatants by specific ELISA (R&D systems, UK) according to manufacturer's conditions.
This assay measures the production of IL-6 as an indication of immune system activation: the lower the value the better from the point of view of alleviating RA symptoms. […]

T1 sequence (Q9BXR0 whole entry): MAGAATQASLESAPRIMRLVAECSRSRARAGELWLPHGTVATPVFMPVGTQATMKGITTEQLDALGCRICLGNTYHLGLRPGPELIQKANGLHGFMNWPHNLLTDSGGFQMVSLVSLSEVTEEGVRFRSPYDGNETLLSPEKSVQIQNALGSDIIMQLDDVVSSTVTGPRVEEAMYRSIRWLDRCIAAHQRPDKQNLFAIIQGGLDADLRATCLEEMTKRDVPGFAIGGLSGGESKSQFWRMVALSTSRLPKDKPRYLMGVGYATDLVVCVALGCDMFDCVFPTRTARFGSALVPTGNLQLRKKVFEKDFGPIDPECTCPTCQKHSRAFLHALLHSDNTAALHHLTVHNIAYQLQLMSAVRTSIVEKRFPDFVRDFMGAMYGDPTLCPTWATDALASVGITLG
T1 sequence (Q9H974 whole entry partner): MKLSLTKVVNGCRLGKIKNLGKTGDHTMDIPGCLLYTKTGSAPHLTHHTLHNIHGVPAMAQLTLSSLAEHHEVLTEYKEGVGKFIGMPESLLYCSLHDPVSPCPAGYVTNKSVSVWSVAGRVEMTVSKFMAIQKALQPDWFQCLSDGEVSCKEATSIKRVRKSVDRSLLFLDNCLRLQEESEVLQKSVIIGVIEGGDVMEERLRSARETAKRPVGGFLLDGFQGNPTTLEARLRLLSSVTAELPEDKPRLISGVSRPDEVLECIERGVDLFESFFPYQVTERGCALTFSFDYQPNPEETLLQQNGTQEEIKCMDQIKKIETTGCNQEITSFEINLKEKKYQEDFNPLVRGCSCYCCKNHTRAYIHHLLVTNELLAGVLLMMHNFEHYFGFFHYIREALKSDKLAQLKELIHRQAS

displacement of the [14C] guanine [1] | SMILES | Level of IL6 expression compared to vehicle [2]
> 98% | Nc1nc2[nH]cc(CN[C@H]3C=C[C@H](O)[C@@H]3O)c2c(=O)[nH]1 [queuine base, queuine] | 
 | C[C@@H]1CCN(C(=O)CC#N)C[C@@H]1N(C)c1ncnc2[nH]ccc12 [Tofacitinib, reference compound] | Reduction to 58%
 | Nc1nc2[nH]cc(CNOCCc3ccccc3)c2c(=O)[nH]1 [Example 1, 2-Amino-5-((phenethoxyamino)methyl)-3,7-dihydro-4H-pyrrolo[2,3-d]pyrimidin-4-one] | Reduction to 17%
 | Nc1nc2[nH]cc(/C=N/O)c2c(=O)[nH]1 [Example 4, 2-Amino-4-oxo-4,7-dihydro-3H-pyrrolo[2,3-d]pyrimidine-5-carbaldehyde oxime] | Reduction to 15%
 | CO/N=C/c1c[nH]c2nc(N)[nH]c(=O)c12 [Example 2, 2-Amino-4-oxo-4,7-dihydro-3H-pyrrolo[2,3-d]pyrimidine-5-carbaldehyde O-methyl oxime] | Reduction to 15%

— patent US12643901B2, “Compounds” (The Provost, Fellows, Foundation Scholars, and the other …, priority 2020, dated 2026)
